The term Kd denotes the constant that tells how readily two partners part at equilibrium.

Structures are written as SMILES. Square brackets hold non-standard residues; d marks the D form. Peptide text beside a SMILES is read from it. * marks the point of attachment. FITC = O=C1OC2(c3ccc(O)cc3Oc3cc(O)ccc32)c2ccc(NC(=S)*)cc21; NMeF = CN[C@@H](Cc1ccccc1)C(=O)O; hPhe = N[C@@H](CCc1ccccc1)C(=O)O; Cit = NC(=O)NCCC[C@H](N)C(=O)O; NMeD = CN[C@@H](CC(=O)O)C(=O)O; NMeV = CN[C@H](C(=O)O)C(C)C; NMeA = CN[C@@H](C)C(=O)O; Dab = NCC[C@H](N)C(=O)O; Alloc = C=CCOC(=O)*; Sar = CNCC(=O)O Some results are limits rather than exact numbers.

T1 sequence (O14744 whole entry): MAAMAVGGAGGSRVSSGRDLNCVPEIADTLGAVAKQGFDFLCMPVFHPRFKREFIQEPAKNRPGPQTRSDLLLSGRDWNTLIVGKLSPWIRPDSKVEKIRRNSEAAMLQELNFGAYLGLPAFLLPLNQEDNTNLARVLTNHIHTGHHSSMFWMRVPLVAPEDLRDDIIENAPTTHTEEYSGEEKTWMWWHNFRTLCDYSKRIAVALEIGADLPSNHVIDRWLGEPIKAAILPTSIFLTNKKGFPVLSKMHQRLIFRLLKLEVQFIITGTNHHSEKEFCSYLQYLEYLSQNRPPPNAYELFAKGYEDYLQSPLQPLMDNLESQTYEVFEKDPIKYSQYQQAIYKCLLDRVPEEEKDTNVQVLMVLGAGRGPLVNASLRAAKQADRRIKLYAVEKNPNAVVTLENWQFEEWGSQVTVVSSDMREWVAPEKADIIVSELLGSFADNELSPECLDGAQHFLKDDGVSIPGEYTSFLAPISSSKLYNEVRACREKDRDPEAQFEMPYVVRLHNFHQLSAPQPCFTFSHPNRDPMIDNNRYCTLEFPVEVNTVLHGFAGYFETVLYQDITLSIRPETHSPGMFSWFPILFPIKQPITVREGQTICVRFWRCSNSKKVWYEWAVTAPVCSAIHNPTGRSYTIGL
T1 sequence (Q9BQA1 whole entry partner): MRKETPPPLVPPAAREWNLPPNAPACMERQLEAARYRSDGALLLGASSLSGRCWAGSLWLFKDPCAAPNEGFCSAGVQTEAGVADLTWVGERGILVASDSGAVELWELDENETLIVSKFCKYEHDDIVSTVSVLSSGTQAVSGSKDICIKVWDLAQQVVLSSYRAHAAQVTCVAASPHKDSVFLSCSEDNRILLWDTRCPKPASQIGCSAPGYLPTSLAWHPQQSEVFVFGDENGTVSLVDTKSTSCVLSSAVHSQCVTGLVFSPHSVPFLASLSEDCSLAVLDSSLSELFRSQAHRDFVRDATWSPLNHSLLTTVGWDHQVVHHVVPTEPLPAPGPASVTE

One test addresses T1, PRMT5-MEP50 (Homo sapiens, UniProt O14744).
T1 construct: The compounds were tested by means of FP with the full-length PRMT5-MEP50 complex; made in house
Kind of test: Direct binding fluorescence polarization (FP) assay of FITC-labeled peptides. The following applies: FITC-labeled peptide 1 nM, PRMT5-MEP50 titrated, read-out: KD. (Polarisation of emitted light reports the rotation of a fluorescent probe.)
Method: The assay was performed in a buffer of 50 mM 4-(2-hydroxyethyl)-1-piperazineethanesulfonic acid (HEPES), 250 mM NaCl, 1 mM tris(2-carboxyethyl)phosphine (TCEP), and 0.01% (v/v) Tween 20, pH 8.0, in black, 384-well plates with a total volume of 10 μL per well. […] The plates were incubated at room temperature for 1 to 2 h and analyzed on a plate reader using 485 nm excitation and 535 nm emission wavelength. The assay was performed in triplicate.
In the case of `CC(C)[C@H](NC(=O)COCCOCCNC(=S)Nc1ccc2c(c1)C(=O)OC21c2ccc(O)cc2Oc2cc(O)ccc21)C(=O)N1CCC[C@H]1C(=O)NCC(=O)N[C@@H](CCC(N)=O)C(=O)N[C@@H](Cc1ccccc1)C(=O)N[C@@H](CC(=O)O)C(=O)N[C@@H](CC(=O)O)C(=O)N[C@@H](C)C(=O)N[C@@H](CC(=O)O)C(N)=O` [Compound 28] (HELM PEPTIDE1{[O=C1OC2(c3ccc(O)cc3Oc3cc(O)ccc32)c2ccc(NC(=S)[*:2])cc21].[O=C(COCCOCCN[*:1])[*:2]].V.P.G.Q.F.D.D.A.D.[am]}$$$$V2.0), the Kd came to 0.905 ± 0.104 µM.
In the case of `CC(=O)N[C@H](C(=O)N1CCC[C@H]1C(=O)NCC(=O)N[C@@H](CCC(N)=O)C(=O)N[C@@H](Cc1ccccc1)C(=O)N[C@@H](CC(=O)O)C(=O)N[C@@H](CC(=O)O)C(=O)N[C@@H](C)C(=O)N[C@@H](CC(=O)O)C(=O)N[C@@H](CCCCNC(=S)Nc1ccc2c(c1)C(=O)OC21c2ccc(O)cc2Oc2cc(O)ccc21)C(N)=O)C(C)C` [Compound 29] (Ac-VPGQFDDADK(FITC)-NH2), the Kd was 0.67 ± 0.187 µM.
Still for that read-out and setting: for `CC(=O)N[C@H](C(=O)N1CCC[C@H]1C(=O)NCC(=O)N[C@@H](CCC(N)=O)C(=O)N[C@@H](Cc1ccccc1)C(=O)N[C@@H](CC(=O)O)C(=O)N[C@@H](CC(=O)O)C(=O)N[C@@H](C)C(=O)N(C)[C@@H](CC(=O)O)C(=O)N[C@@H](CCCCNC(=S)Nc1ccc2c(c1)C(=O)OC21c2ccc(O)cc2Oc2cc(O)ccc21)C(N)=O)C(C)C` [Compound 44] (Ac-VPGQFDDA[NMeD]K(FITC)-NH2) the value was 0.6 ± 0.1 µM; for `CC(=O)N[C@H](C(=O)N1CCC[C@H]1C(=O)N[C@@H]1CCCCC[C@@H](C(=O)N[C@@H](CC(=O)O)C(=O)N[C@@H](C)C(=O)N[C@@H](CC(C(=O)O)C(=O)O)C(=O)N[C@@H](CCCCNC(=S)Nc2ccc3c(c2)C(=O)OC32c3ccc(O)cc3Oc3cc(O)ccc32)C(N)=O)NC(=O)[C@H](Cc2ccc([N+](=O)[O-])cc2)NC(=O)[C@H](CCC(N)=O)NC1=O)C(C)C` [Compound 50], 0.089 ± 0.011 µM.

Staying with this test, now noted: supplementary CSV, read-out: PRMT5-MEP50 Kd.
Take `CC(=O)N[C@H](C(=O)N1CCC[C@H]1C(=O)N[C@@H]1CCCCCC[C@H](C(=O)N[C@@H](CC(=O)O)C(=O)N[C@@H](C)C(=O)N[C@@H](CC(=O)O)C(=O)N[C@@H](CCCCNC(=S)Nc2ccc3c(c2)C(=O)OC32c3ccc(O)cc3Oc3cc(O)ccc32)C(N)=O)NC(=O)[C@H](Cc2ccccc2)NC(=O)[C@H](CCC(N)=O)NC1=O)C(C)C` [Compound 27]: the Kd was over 2 µM.
Turning to `CC(=O)N[C@H](C(=O)N1CCC[C@H]1C(=O)NCC(=O)N[C@@H](CCC(N)=O)C(=O)N[C@@H](Cc1ccccc1)C(=O)N[C@@H](CC(=O)O)C(=O)N[C@@H](CC(=O)O)C(=O)N[C@@H](C)C(=O)N[C@@H](CCC(=O)O)C(=O)N[C@@H](CCCCNC(=S)Nc1ccc2c(c1)C(=O)OC21c2ccc(O)cc2Oc2cc(O)ccc21)C(N)=O)C(C)C` [Compound 33] (Ac-VPGQFDDAEK(FITC)-NH2), the dissociation constant (Kd) stood at 0.531 ± 0.023 µM.
Same read-out and setting: for `CC(=O)N[C@H](C(=O)N1CCC[C@H]1C(=O)NCC(=O)N[C@@H](CCC(N)=O)C(=O)N[C@@H](Cc1ccccc1)C(=O)N[C@@H](CC(=O)O)C(=O)N[C@@H](CC(=O)O)C(=O)N[C@@H](C)C(=O)N(C)[C@@H](CC(=O)O)C(=O)N[C@@H](CCCCNC(=S)Nc1ccc2c(c1)C(=O)OC21c2ccc(O)cc2Oc2cc(O)ccc21)C(N)=O)C(C)C` [Compound 44] (Ac-VPGQFDDA[NMeD]K(FITC)-NH2) the value was 0.587 ± 0.142 µM; for `CC(=O)N[C@H](C(=O)N1CCC[C@H]1C(=O)NCC(=O)N[C@@H](CCC(N)=O)C(=O)N[C@@H](Cc1ccccc1)C(=O)N[C@@H](CC(=O)O)C(=O)N[C@@H](CC(=O)O)C(=O)N(C)[C@@H](C)C(=O)N[C@@H](CC(=O)O)C(=O)N[C@@H](CCCCNC(=S)Nc1ccc2c(c1)C(=O)OC21c2ccc(O)cc2Oc2cc(O)ccc21)C(N)=O)C(C)C` [Compound 45, Ac-VPGQFDD-(N-Me)A-DK(Fitc)-NH2] (Ac-VPGQFDD[NMeA]DK(FITC)-NH2), over 2 µM; for `CC(=O)N[C@H](C(=O)N1CCC[C@H]1C(=O)NCC(=O)N[C@@H](CCC(N)=O)C(=O)N[C@@H](Cc1ccccc1)C(=O)N[C@@H](CC(=O)O)C(=O)N(C)[C@@H](CC(=O)O)C(=O)N[C@@H](C)C(=O)N[C@@H](CC(=O)O)C(=O)N[C@@H](CCCCNC(=S)Nc1ccc2c(c1)C(=O)OC21c2ccc(O)cc2Oc2cc(O)ccc21)C(N)=O)C(C)C` [Compound 46, Ac-VPGQFD-(N-Me)D-ADK(Fitc)-NH2] (Ac-VPGQFD[NMeD]ADK(FITC)-NH2), over 2 µM.
As for `CC(=O)N[C@H](C(=O)N1CCC[C@H]1C(=O)NCC(=O)N[C@@H](CCC(N)=O)C(=O)N(C)[C@@H](Cc1ccccc1)C(=O)N[C@@H](CC(=O)O)C(=O)N[C@@H](CC(=O)O)C(=O)N[C@@H](C)C(=O)N[C@@H](CC(=O)O)C(=O)N[C@@H](CCCCNC(=S)Nc1ccc2c(c1)C(=O)OC21c2ccc(O)cc2Oc2cc(O)ccc21)C(N)=O)C(C)C` [Compound 47, Ac-VPGQ-(N-Me)F-DDADK(Fitc)-NH2] (Ac-VPGQ[NMeF]DDADK(FITC)-NH2), the dissociation constant Kd was over 2 µM.
On the same count and under the same terms, for `CC(=O)N[C@H](C(=O)N1CCC[C@H]1C(=O)N(C)CC(=O)N[C@@H](CCC(N)=O)C(=O)N[C@@H](Cc1ccccc1)C(=O)N[C@@H](CC(=O)O)C(=O)N[C@@H](CC(=O)O)C(=O)N[C@@H](C)C(=O)N[C@@H](CC(=O)O)C(=O)N[C@@H](CCCCNC(=S)Nc1ccc2c(c1)C(=O)OC21c2ccc(O)cc2Oc2cc(O)ccc21)C(N)=O)C(C)C` [Compound 48, Ac-VP-(N-Me)G-QFDDADK(Fitc)-NH2] (Ac-VP[Sar]QFDDADK(FITC)-NH2) the value was over 2 µM.
Same read-out and setting: under `CC(=O)N(C)[C@H](C(=O)N1CCC[C@H]1C(=O)NCC(=O)N[C@@H](CCC(N)=O)C(=O)N[C@@H](Cc1ccccc1)C(=O)N[C@@H](CC(=O)O)C(=O)N[C@@H](CC(=O)O)C(=O)N[C@@H](C)C(=O)N[C@@H](CC(=O)O)C(=O)N[C@@H](CCCCNC(=S)Nc1ccc2c(c1)C(=O)OC21c2ccc(O)cc2Oc2cc(O)ccc21)C(N)=O)C(C)C` [Compound 49] (Ac-[NMeV]PGQFDDADK(FITC)-NH2) stands over 2 µM; under `CC(=O)N[C@@H](Cc1ccc(O)cc1)C(=O)N1CCC[C@H]1C(=O)NCC(=O)N[C@@H](CCC(N)=O)C(=O)N[C@@H](Cc1ccccc1)C(=O)N[C@@H](CC(=O)O)C(=O)N[C@@H](CC(=O)O)C(=O)N[C@@H](C)C(=O)N[C@@H](CC(=O)O)C(=O)N[C@@H](CCCCNC(=S)Nc1ccc2c(c1)C(=O)OC21c2ccc(O)cc2Oc2cc(O)ccc21)C(N)=O` [Compound S2] (Ac-YPGQFDDADK(FITC)-NH2), over 1 µM.
The same measure, in the same setting: under `CC(=O)N[C@@H](Cc1ccccc1)C(=O)N1CCC[C@H]1C(=O)NCC(=O)N[C@@H](CCC(N)=O)C(=O)N[C@@H](Cc1ccccc1)C(=O)N[C@@H](CC(=O)O)C(=O)N[C@@H](CC(=O)O)C(=O)N[C@@H](C)C(=O)N[C@@H](CC(=O)O)C(=O)N[C@@H](CCCCNC(=S)Nc1ccc2c(c1)C(=O)OC21c2ccc(O)cc2Oc2cc(O)ccc21)C(N)=O` [Compound S3] (Ac-FPGQFDDADK(FITC)-NH2) stands over 1 µM; under `CC(=O)N[C@@H](CCc1ccccc1)C(=O)N1CCC[C@H]1C(=O)NCC(=O)N[C@@H](CCC(N)=O)C(=O)N[C@@H](Cc1ccccc1)C(=O)N[C@@H](CC(=O)O)C(=O)N[C@@H](CC(=O)O)C(=O)N[C@@H](C)C(=O)N[C@@H](CC(=O)O)C(=O)N[C@@H](CCCCNC(=S)Nc1ccc2c(c1)C(=O)OC21c2ccc(O)cc2Oc2cc(O)ccc21)C(N)=O` [Compound S4] (Ac-[hPhe]PGQFDDADK(FITC)-NH2), over 1 µM.
Turning to `CC(=O)N[C@@H](Cc1c[nH]c2ccccc12)C(=O)N1CCC[C@H]1C(=O)NCC(=O)N[C@@H](CCC(N)=O)C(=O)N[C@@H](Cc1ccccc1)C(=O)N[C@@H](CC(=O)O)C(=O)N[C@@H](CC(=O)O)C(=O)N[C@@H](C)C(=O)N[C@@H](CC(=O)O)C(=O)N[C@@H](CCCCNC(=S)Nc1ccc2c(c1)C(=O)OC21c2ccc(O)cc2Oc2cc(O)ccc21)C(N)=O` [Compound S5] (Ac-WPGQFDDADK(FITC)-NH2), the Kd is over 1 µM.
Regarding `CC(=O)N[C@@H](CC(=O)O)C(=O)N1CCC[C@H]1C(=O)NCC(=O)N[C@@H](CCC(N)=O)C(=O)N[C@@H](Cc1ccccc1)C(=O)N[C@@H](CC(=O)O)C(=O)N[C@@H](CC(=O)O)C(=O)N[C@@H](C)C(=O)N[C@@H](CC(=O)O)C(=O)N[C@@H](CCCCNC(=S)Nc1ccc2c(c1)C(=O)OC21c2ccc(O)cc2Oc2cc(O)ccc21)C(N)=O` [Compound S6] (Ac-DPGQFDDADK(FITC)-NH2), the Kd was over 1 µM.
Same read-out and setting: for `CC(=O)N[C@@H](CCC(=O)O)C(=O)N1CCC[C@H]1C(=O)NCC(=O)N[C@@H](CCC(N)=O)C(=O)N[C@@H](Cc1ccccc1)C(=O)N[C@@H](CC(=O)O)C(=O)N[C@@H](CC(=O)O)C(=O)N[C@@H](C)C(=O)N[C@@H](CC(=O)O)C(=O)N[C@@H](CCCCNC(=S)Nc1ccc2c(c1)C(=O)OC21c2ccc(O)cc2Oc2cc(O)ccc21)C(N)=O` [Compound S7] (Ac-EPGQFDDADK(FITC)-NH2) the value was 0.695 ± 0.078 µM; for `CC(=O)N[C@H](C(=O)N1CCC[C@H]1C(=O)NCC(=O)N[C@@H](CC(N)=O)C(=O)N[C@@H](Cc1ccccc1)C(=O)N[C@@H](CC(=O)O)C(=O)N[C@@H](CC(=O)O)C(=O)N[C@@H](C)C(=O)N[C@@H](CC(=O)O)C(=O)N[C@@H](CCCCNC(=S)Nc1ccc2c(c1)C(=O)OC21c2ccc(O)cc2Oc2cc(O)ccc21)C(N)=O)C(C)C` [Compound S8] (Ac-VPGNFDDADK(FITC)-NH2), over 1 µM.
On the same count and under the same terms, under `CC(=O)N[C@H](C(=O)N1CCC[C@H]1C(=O)NCC(=O)N[C@@H](CCN)C(=O)N[C@@H](Cc1ccccc1)C(=O)N[C@@H](CC(=O)O)C(=O)N[C@@H](CC(=O)O)C(=O)N[C@@H](C)C(=O)N[C@@H](CC(=O)O)C(=O)N[C@@H](CCCCNC(=S)Nc1ccc2c(c1)C(=O)OC21c2ccc(O)cc2Oc2cc(O)ccc21)C(N)=O)C(C)C` [Compound S9] (Ac-VPG[Dab]FDDADK(FITC)-NH2) stands over 1 µM.
For the molecule `C=CCOC(=O)NCC[C@H](NC(=O)CNC(=O)[C@@H]1CCCN1C(=O)[C@@H](NC(C)=O)C(C)C)C(=O)N[C@@H](Cc1ccccc1)C(=O)N[C@@H](CC(=O)O)C(=O)N[C@@H](CC(=O)O)C(=O)N[C@@H](C)C(=O)N[C@@H](CC(=O)O)C(=O)N[C@@H](CCCCNC(=S)Nc1ccc2c(c1)C(=O)OC21c2ccc(O)cc2Oc2cc(O)ccc21)C(N)=O` [Compound S10] (Ac-VPG[Dab](Alloc)FDDADK(FITC)-NH2), the Kd was over 1 µM.
The same measure, in the same setting: under `CC(=O)N[C@H](C(=O)N1CCC[C@H]1C(=O)NCC(=O)N[C@@H](CCCNC(N)=O)C(=O)N[C@@H](Cc1ccccc1)C(=O)N[C@@H](CC(=O)O)C(=O)N[C@@H](CC(=O)O)C(=O)N[C@@H](C)C(=O)N[C@@H](CC(=O)O)C(=O)N[C@@H](CCCCNC(=S)Nc1ccc2c(c1)C(=O)OC21c2ccc(O)cc2Oc2cc(O)ccc21)C(N)=O)C(C)C` [Compound S11] (Ac-VPG[Cit]FDDADK(FITC)-NH2) stands over 1 µM.

Source of the values: paper PMC9706563, “Development of Macrocyclic PRMT5–Adaptor Protein Interaction Inhibitors” (Journal of Medicinal Chemistry, 2022).
